pIC50: −log10 of the molar value. Starred links: 1 amine or outer side, 2 acyl side, 3 side chain; linkers in the order of their positions; H or OH if unused. Non-standard residues stand in square brackets, D forms with d. Residues, ends and D or L forms follow the SMILES beside them. azaTyr = O=C(N(Cc1ccc(O)cc1)N[*:1])[*:2]
What was measured:
CD36 = CD36 (Rattus norvegicus (Rat), UniProt Q07969); assay: CD36 receptor covalent photolabelling binding assay, competition with [125I]Tyr-Bpa-Ala-hexarelin on rat cardiac membranes
Chain of CD36 (Q07969 whole entry): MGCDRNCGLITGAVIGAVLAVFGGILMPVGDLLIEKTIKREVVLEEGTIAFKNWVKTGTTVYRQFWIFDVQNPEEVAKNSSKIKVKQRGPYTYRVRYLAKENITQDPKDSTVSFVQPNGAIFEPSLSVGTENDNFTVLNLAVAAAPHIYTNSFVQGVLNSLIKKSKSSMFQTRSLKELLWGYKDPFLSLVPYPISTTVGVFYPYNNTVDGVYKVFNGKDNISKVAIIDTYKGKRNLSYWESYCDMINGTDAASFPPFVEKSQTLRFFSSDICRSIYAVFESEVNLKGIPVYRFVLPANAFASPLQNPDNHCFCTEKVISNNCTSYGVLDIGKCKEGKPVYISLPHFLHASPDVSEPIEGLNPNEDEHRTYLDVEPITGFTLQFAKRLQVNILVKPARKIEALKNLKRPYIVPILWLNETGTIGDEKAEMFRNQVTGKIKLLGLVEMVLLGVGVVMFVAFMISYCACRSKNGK

[1] = tested on: laser injury induced choroidal neovascularisation; assay: Inhibition of choroidal neovascularisation in vivo, laser injury model; parameters: species or system mice
Source text: The standard model of choroidal neovascularisation is the laser injury induced neovascularisation (47). In this model, which is applicable to rodents and primates, a laser beam is used to disrupt the RPE and the Bruchs membrane that separates the choroidal vasculature from the subretinal space. The following local inflammatory reaction in deep retina and choroid leads to a localized subretinal neovascularisation in a similar manner as that observed in AMD. This local neovascularisation can be quantified on flatmounts of RPE/choroid/sclera. The antiangiogenic effect of DBG178 on subretinal neovascularisation was tested by injecting intravitreally at effective concentration of 10^−7 to 10^−6 M within the eye and compared to that of intravitreal injection of saline used as a control.
Ten-week old C56/Bl6+/+ and CD36 null mice of C57Bl/6 background were anesthetized by intramuscular injection of ketamine (50 mg/kg) and xylazine (10 mg/kg). Pupils were fully dilated with 1% tropicamide. Coverslips positioned on the mouse cornea were used as a contact glass. Laser-coagulations were performed 1 to 2 disc diameters away from the papillae using an Argon laser (532 nm) mounted on a slit lamp (400 mW, 50 ms and 50 μm). […] The RPE/choroids were radially incised, flatmounted and viewed using a fluorescence microscope (BX51; Olympus). CNV were measured on photographs using Scion image analysis software.

pIC50 (CD36; Table 3, rat cardiac membranes, [125I]Tyr-Bpa-Ala-hexarelin as radioligand, read-out: IC50, binding affinity of aza peptide derivatives towards CD36): 4.55
binding activity/affinity at CD36 in words (CD36; compared with parent peptide GHRP-6 or hexarelin): maintaining the binding activity
SMILES: C[C@H](NC(=O)[C@@H](Cc1c[nH]c2ccccc12)NC(=O)[C@@H](N)Cc1cnc[nH]1)C(=O)NN(Cc1ccc(O)cc1)C(=O)N[C@H](Cc1ccccc1)C(=O)N[C@@H](CCCCN)C(N)=O [DBG178p, His-D-Trp-Ala-azaTyr-D-Phe-Lys-NH2] (H-H[dW]A[azaTyr][dF]K-NH2)
inhibition of the neovascular response ([1]; C57BL/6 mice, intravitreal injection 3 and 7 days after laser injury, 10^−7 and 10^−6 M within the eye): more than 50%
effect on the neovascular response ([1]; eye of CD36 null mice, intravitreal injection): no effect

From patent US9708370B2, “Azapeptides as CD36 binding compounds” (VALORISATION-RECHERCHE, LIMITED PARTNERSHIP, priority 2007, dated 2017)
